From ChEMBL document CHEMBL1127135, “Synthesis and biological properties of 3-[()-2-(1,2,3-Thiadiazolyl)ethenyl]-substituted cephalosporins and related compounds: new oral cephalosporins” (Bioorg Med Chem Lett, 1993)
≈ marks a conversion by molar mass, not a printed value. Values belong to the molecule of their own block, whether it stands above or below them.

Columns and labels:
[1] = Evaluated for pharmacokinetic parameter urine recovery in mouse at the dose 20 mg/kg ( 0-24 hr ); type: ADME, organism-based; parameters: dose 20 mg/kg; conditions: read-out: UR
[2] = Evaluated for pharmacokinetic parameter urine recovery in rat at the dose 50 mg/kg ( 0-24 hr ); type: ADME, organism-based; parameters: dose 50 mg/kg; conditions: read-out: UR
[3] = Evaluated for pharmacokinetic parameter Cmax in mouse at the dose 20 mg/kg; type: ADME, organism-based; parameters: dose 20 mg/kg; conditions: in vivo
[4] = Evaluated for pharmacokinetic parameter area under curve in rabbit at the dose 20 mg/kg ( 0-4 hr ); type: ADME, organism-based, Oryctolagus cuniculus; parameters: time < 4 hr, dose 20 mg/kg; conditions: in vivo
[5] = Evaluated for pharmacokinetic parameter area under curve in mouse at the dose 20 mg/kg (0-4 hr); type: ADME, organism-based; parameters: time < 4 hr, dose 20 mg/kg; conditions: in vivo
[6] = Evaluated for pharmacokinetic parameter tmax in rat at the dose 50 mg/kg; type: ADME, organism-based; parameters: dose 50 mg/kg; conditions: in vivo
[7] = Evaluated for pharmacokinetic parameter area under curve in rat at the dose 50 mg/kg ( 0-8 hr ); type: ADME, organism-based; parameters: time < 8 hr, dose 50 mg/kg; conditions: in vivo
[8] = Evaluated for pharmacokinetic parameter half-life in mouse at the dose 20 mg/kg; type: ADME, organism-based; parameters: dose 20 mg/kg; conditions: in vivo
[9] = Evaluated for pharmacokinetic parameter tmax in mouse at the dose 20 mg/kg; type: ADME, organism-based; parameters: dose 20 mg/kg; conditions: in vivo
[10] = Evaluated for pharmacokinetic parameter Cmax in rabbit at the dose 20 mg/kg; type: ADME, organism-based, Oryctolagus cuniculus; parameters: dose 20 mg/kg; conditions: in vivo
[11] = Evaluated for pharmacokinetic parameter urine recovery in rabbit at the dose 20 mg/kg ( 0-24 hr ); type: ADME, organism-based, Oryctolagus cuniculus; parameters: dose 20 mg/kg; conditions: read-out: UR
[12] = Evaluated for pharmacokinetic parameter Cmax in rat at the dose 50 mg/kg; type: ADME, organism-based; parameters: dose 50 mg/kg; conditions: in vivo
[13] = Evaluated for pharmacokinetic parameter half-life in rabbit at the dose 20 mg/kg; type: ADME, organism-based, Oryctolagus cuniculus; parameters: dose 20 mg/kg; conditions: in vivo
[14] = Evaluated for pharmacokinetic parameter half-life in rat at the dose 50 mg/kg; type: ADME, organism-based; parameters: dose 50 mg/kg; conditions: in vivo
[15] = Evaluated for pharmacokinetic parameter tmax in rabbit at the dose 20 mg/kg; type: ADME, organism-based, Oryctolagus cuniculus; parameters: dose 20 mg/kg; conditions: in vivo
Escherichia coli [16] = assay: Antibacterial activity against Escherichia coli ATCC 25922 was determined; type: functional
Staphylococcus aureus [17] = assay: Antibacterial activity against Staphylococcus aureus 209P-JC was determined; type: functional
Serratia marcescens = assay: Antibacterial activity against Serratia marcescens IID 618 was determined; type: functional
Klebsiella pneumoniae = assay: Antibacterial activity against Klebsiella pneumoniae IFO 3317 was determined; type: functional
[18] = test system: Staphylococcus epidermidis; assay: Antibacterial activity against Staphylococcus epidermidis IID 866 was determined; type: functional
Escherichia coli [19] = assay: Antibacterial activity against Escherichia coli NIHJ JC-2 was determined; type: functional
Morganella morganii = assay: Antibacterial activity against Morganella morganii IID 602 was determined; type: functional
Enterococcus hirae = assay: Antibacterial activity against Enterococcus hirae ATCC 8043 was determined; type: functional
Proteus mirabilis = assay: Antibacterial activity against Proteus mirabilis IFO3849 was determined; type: functional
Providencia rettgeri = assay: Antibacterial activity against Providencia rettgeri IFO3850 was determined; type: functional
Micrococcus luteus = assay: Antibacterial activity against Micrococcus luteus ATCC 9341 was determined; type: functional
Pseudomonas aeruginosa = assay: Antibacterial activity against Pseudomonas aeruginosa NCTC 10490 was determined; type: functional
Proteus vulgaris = assay: Antibacterial activity against Proteus vulgaris HX-19 was determined; type: functional
Klebsiella aerogenes = assay: Antibacterial activity against Enterobacter aerogenes IFO 13048 was determined; type: functional
Moraxella catarrhalis = assay: Antibacterial activity against M(B). catarrhalis ATCC 25238 was determined; type: functional
Enterobacter cloacae = assay: Antibacterial activity against Enterobacter cloacae 963 was determined; type: functional
Staphylococcus aureus [20] = assay: Antibacterial activity against Staphylococcus aureus ATCC 25923 was determined; type: functional
Staphylococcus aureus [21] = assay: Antibacterial activity against Staphylococcus aureus Smith was determined; type: functional

dose excreted [1]: 42.8%
dose excreted [2]: 9.5%
Cmax [3]: 20500 ng/mL
AUC at 4 h [4]: 10500 ng·h/mL
AUC at 4 h [5]: 62000 ng·h/mL
Tmax [6]: 1 h
AUC at 8 h [7]: 37900 ng·h/mL
half-life [8]: 2.7 h
Tmax [9]: 0.5 h
Cmax [10]: 2400 ng/mL
dose excreted [11]: 17.2%
Cmax [12]: 15200 ng/mL
half-life [13]: 2.3 h
half-life [14]: 1.8 h
Tmax [15]: 1 h
SMILES: CC(C)(C)C(=O)OCOC(=O)C1=C(/C=C\c2csnn2)CSC2C(NC(=O)/C(=N\O)c3csc(N)n3)C(=O)N12 (stereo not drawn)

MIC (Escherichia coli [16]): 0.2 µg/mL (≈ 0.405 µM)
MIC (Staphylococcus aureus [17]): 0.2 µg/mL (≈ 0.405 µM)
MIC (Serratia marcescens): 0.78 µg/mL (≈ 1.58 µM)
MIC (Klebsiella pneumoniae): 0.05 µg/mL (≈ 0.101 µM)
MIC [18]: 0.2 µg/mL (≈ 0.405 µM)
MIC (Escherichia coli [19]): 0.1 µg/mL (≈ 0.203 µM)
MIC (Morganella morganii): 0.05 µg/mL (≈ 0.101 µM)
MIC (Enterococcus hirae): 25 µg/mL (≈ 50.7 µM)
MIC (Proteus mirabilis): 0.1 µg/mL (≈ 0.203 µM)
MIC (Providencia rettgeri): ≤ 0.006 µg/mL
SMILES: Cc1nnsc1/C=C\C1=C(C(=O)O)N2C(=O)C(NC(=O)/C(=N\O)c3csc(N)n3)C2SC1 (stereo not drawn)

MIC (Escherichia coli [16]): 0.2 µg/mL (≈ 0.405 µM)
MIC (Staphylococcus aureus [17]): 0.2 µg/mL (≈ 0.405 µM)
MIC (Serratia marcescens): 0.78 µg/mL (≈ 1.58 µM)
MIC (Klebsiella pneumoniae): 0.025 µg/mL (≈ 0.0507 µM)
MIC [18]: 0.39 µg/mL (≈ 0.79 µM)
MIC (Micrococcus luteus): 0.025 µg/mL (≈ 0.0507 µM)
MIC (Pseudomonas aeruginosa): > 100 µg/mL
MIC (Proteus vulgaris): 0.05 µg/mL (≈ 0.101 µM)
MIC (Klebsiella aerogenes): 0.78 µg/mL (≈ 1.58 µM)
MIC (Moraxella catarrhalis): 0.05 µg/mL (≈ 0.101 µM)
MIC (Escherichia coli [19]): 0.39 µg/mL (≈ 0.79 µM)
MIC (Enterobacter cloacae): 0.39 µg/mL (≈ 0.79 µM)
MIC (Morganella morganii): 0.05 µg/mL (≈ 0.101 µM)
MIC (Staphylococcus aureus [20]): 0.39 µg/mL (≈ 0.79 µM)
MIC (Enterococcus hirae): 25 µg/mL (≈ 50.7 µM)
MIC (Staphylococcus aureus [21]): 0.2 µg/mL (≈ 0.405 µM)
MIC (Proteus mirabilis): 0.39 µg/mL (≈ 0.79 µM)
MIC (Providencia rettgeri): ≤ 0.006 µg/mL
SMILES: Cc1snnc1/C=C\C1=C(C(=O)O)N2C(=O)C(NC(=O)/C(=N\O)c3csc(N)n3)C2SC1 (stereo not drawn)
